Key:
[1] = system: PBMC; test: Cell growth, CellTitor-Glo assay, 72 h; format: cell-based, human; settings: Homo sapiens; PBMC (non-malignant)
Method: The human NB cell lines, SK-N-DZ, SK-N-BE(2)c, SK-N-AS, and LAN-5 obtained from the American Type Culture Collection (Rockville, MD), were cultured in DMEM with 10% fetal bovine serum (FBS), 100 units/ml penicillin, and 100 μg/ml streptomycin in the presence of 5% CO2 at 37° C. Human PBMCs from a healthy donor were purchased from Sanguine BioSciences (Valencia, CA) and grown in RPMI1640 with 10% FBS, 100 units/ml penicillin, 100 μg/ml streptomycin, and 10 ng/ml IL-2 in the presence of 5% CO2 at 37° C. Human embryonic progenitor cell line 7SM0032 was acquired from Millipore (Billerica, MA) and grown in the hEPM-1 Media Kit purchased from the same company. The plasmid pCBASce expresses the rare cutting I-SceI meganuclease. The U20S-derived cell lines, DR-GFP and EJ5-GFP, each contain a stably transfected reporter gene for DSB repair mediated by HR and end joining (EJ), respectively. These cell lines were cultured in DMEM medium with 10% FBS at 37° C. in the presence of 5% CO2.
To measure the effect of the compounds on cell growth, cells were seeded at 3×10^4/ml into a 96-well plate. Once attached, cells were treated with various concentrations of AOH1160 for 72 h. Cell growth was measured by the CellTitor-Glo assay (Promega, Madison, WI) according to the manufacturer's instructions. To measure apoptosis, cells were seeded at 1×10^5/ml onto a chamber slide. Once attached, cells were treated with the 500 nM AOH1160 for 24 h. Cells were fixed and analyzed by a TUNEL assay using the TMR red in situ cell death detection kit (Roche Diagnostics, Indianapolis, IN).

[2] = system: 786-0; test: NCI-60 panel test; format: cell-based; settings: Homo sapiens; 786-0, NCI-60 5-dose study
Method: (§1) FIG. 7. NCI-60 panel test. The effect of AOH1160 on growth of the NCI-60 panel, which consists of 60 cancer cell lines representing 9 major cancer types, was tested in a 5-dose study. Shown are the Log IC50 values determined for each cell line. […] This study was performed by the National Institute of Cancer.
(§2) As observed in FIG. 7, the effect of AOH1160 on growth of the NCI-60 panel, which consists of 60 cancer cell lines representing 9 major cancer types, was tested in a 5-dose study. Shown are the Log IC50 values determined for each cell line.

[3] = system: A498; test: NCI-60 panel test; format: cell-based; settings: Homo sapiens; A498, NCI-60 5-dose study
Method: as §1, §2

[4] = system: A549/ATCC; test: NCI-60 panel test; format: cell-based; settings: Homo sapiens, NCI-60 5-dose study
Method: as §1, §2

[5] = system: CCRF-CEM; test: NCI-60 panel test; format: cell-based; settings: Homo sapiens, NCI-60 5-dose study
Method: as §1, §2

[6] = system: COLO 205; test: NCI-60 panel test; format: cell-based; settings: Homo sapiens
Method: as §1, §2

[7] = system: EKVX; test: NCI-60 panel test; format: cell-based; settings: Homo sapiens, NCI-60 5-dose study
Method: as §1, §2

[8] = system: HCC-2998; test: NCI-60 panel test; format: cell-based; settings: Homo sapiens; HCC-2998, NCI-60 5-dose study
Method: as §1, §2

[9] = system: HCT-116; test: NCI-60 panel test; format: cell-based; settings: Homo sapiens; HCT-116, NCI-60 5-dose study
Method: as §1, §2

[10] = system: HCT-15; test: NCI-60 panel test; format: cell-based; settings: Homo sapiens; HCT-15, NCI-60 5-dose study
Method: as §1, §2

[11] = system: HOP-62; test: NCI-60 panel test; format: cell-based; settings: Homo sapiens; HOP-62, NCI-60 5-dose study
Method: as §1, §2

[12] = system: HOP-92; test: NCI-60 panel test; format: cell-based; settings: Homo sapiens; HOP-92, NCI-60 5-dose study
Method: as §1, §2

[13] = system: IGROV1; test: NCI-60 panel test; format: cell-based; settings: Homo sapiens, IGROV-1; IGROV1, NCI-60 5-dose study
Method: as §1, §2

[14] = system: MCF7; test: NCI-60 panel test; format: cell-based; settings: Homo sapiens; MCF7, NCI-60 5-dose study
Method: as §1, §2

[15] = system: MDA-MB-231/ATCC; test: NCI-60 panel test; format: cell-based; settings: Homo sapiens, NCI-60 5-dose study
Method: as §1, §2

[16] = system: MDA-MB-435; test: NCI-60 panel test; format: cell-based; settings: Homo sapiens; MDA-MB-435, NCI-60 5-dose study
Method: as §1, §2

[17] = system: MOLT-4; test: NCI-60 panel test; format: cell-based; settings: Homo sapiens; MOLT-4, NCI-60 5-dose study
Method: as §1, §2

[18] = system: NCI-H226; test: NCI-60 panel test; format: cell-based; settings: Homo sapiens; NCI-H226, NCI-60 5-dose study
Method: as §1, §2

[19] = system: NCI-H322M; test: NCI-60 panel test; format: cell-based; settings: Homo sapiens, NCI-60 5-dose study
Method: as §1, §2

[20] = system: PC-3; test: NCI-60 panel test; format: cell-based; settings: Homo sapiens; PC-3, NCI-60 5-dose study
Method: as §1, §2

[21] = system: SF-268; test: NCI-60 panel test; format: cell-based; settings: Homo sapiens
Method: as §1, §2

[22] = system: SF-295; test: NCI-60 panel test; format: cell-based; settings: Homo sapiens; SF-295, NCI-60 5-dose study
Method: as §1, §2

[23] = system: SK-MEL-2; test: NCI-60 panel test; format: cell-based; settings: Homo sapiens; SK-MEL-2, NCI-60 5-dose study
Method: as §1, §2

[24] = system: SK-OV-3; test: NCI-60 panel test; format: cell-based; settings: Homo sapiens; SK-OV-3, NCI-60 5-dose study
Method: as §1, §2

[25] = system: SN12C; test: NCI-60 panel test; format: cell-based; settings: Homo sapiens, NCI-60 5-dose study
Method: as §1, §2

[26] = system: SNB-75; test: NCI-60 panel test; format: cell-based; settings: Homo sapiens; SNB-75, NCI-60 5-dose study
Method: as §1, §2

[27] = system: SR; test: NCI-60 panel test; format: cell-based; settings: Homo sapiens, NCI-60 5-dose study
Method: as §1, §2

[28] = system: TK-10; test: NCI-60 panel test; format: cell-based; settings: Homo sapiens; TK-10, NCI-60 5-dose study
Method: as §1, §2

[29] = system: UACC-62; test: NCI-60 panel test; format: cell-based; settings: Homo sapiens; UACC-62, NCI-60 5-dose study
Method: as §1, §2

Row | Structure (SMILES) | IC50 [1] [µM] | GI50 [2] [µM] | GI50 [3] [µM] | GI50 [4] [µM] | GI50 [5] [µM] | GI50 [6] [µM] | GI50 [7] [µM] | GI50 [8] [µM] | GI50 [9] [µM] | GI50 [10] [µM] | GI50 [11] [µM] | GI50 [12] [µM] | GI50 [13] [µM] | GI50 [14] [µM] | GI50 [15] [µM] | GI50 [16] [µM] | GI50 [17] [µM] | GI50 [18] [µM] | GI50 [19] [µM] | GI50 [20] [µM] | also measured
1 | O=C(CNC(=O)c1cccc2ccccc12)Nc1ccccc1Oc1cccc(O)c1 [PCNA2] | > 20 | 10 | 5.13 | 9.55 | 4.17 | 14.8 | 8.91 | 25.1 | 1.38 | 3.16 | 8.13 | 25.1 | 10 | 4.47 | 17.8 | 0.759 | 4.9 | 25.1 | 10.7 | 7.08 | GI50 [21]: 20.9 µM; GI50 [22]: 2.19 µM; GI50 [23]: 25.1 µM; GI50 [24]: 12.9 µM; GI50 [25]: 25.1 µM; GI50 [26]: 3.31 µM; GI50 [27]: 1.05 µM; GI50 [28]: 25.1 µM; GI50 [29]: 1.62 µM
2 | COc1ccc(Oc2ccccc2NC(=O)CNC(=O)c2cccc3ccccc23)cc1 [PCNA6] | > 20 | 1.15 | 0.562 | 1.26 | 0.912 | 0.646 | 1.38 | 1.41 | 0.617 | 0.589 | 0.724 | 25.1 | 1.58 | 0.257 | 2.24 | 0.0832 | 0.955 | 4.27 | 1.23 | 1.05 | GI50 [21]: 2.04 µM; GI50 [22]: 0.398 µM; GI50 [23]: 2.29 µM; GI50 [24]: 1.02 µM; GI50 [25]: 2.29 µM; GI50 [27]: 0.166 µM; GI50 [28]: 2.14 µM; GI50 [29]: 0.562 µM
3 | COc1cccc(Oc2ccccc2NC(=O)CNC(=O)c2cccc3ccccc23)c1 [PCNA7/ AOH1996] | > 20 | 0.182 | 0.115 | 0.316 | 0.363 | 0.282 | 1.29 | 1.26 | 0.0955 | 0.129 | 0.302 | 0.204 | 1.05 | 0.1 | 0.776 | 0.0708 | 0.661 | 2.51 | 1.29 | 0.282 | GI50 [21]: 0.55 µM; GI50 [22]: 0.112 µM; GI50 [23]: 0.182 µM; GI50 [24]: 0.49 µM; GI50 [25]: 1.45 µM; GI50 [26]: 0.129 µM; GI50 [27]: 0.115 µM; GI50 [28]: 1.58 µM; GI50 [29]: 0.209 µM

Reference: patent US12054447B2, “PCNA inhibitors” (City of Hope, priority 2015, dated 2024)
